The target in data set [1] is T1, CYP2B6 (Homo sapiens, UniProt P20813).
T1 sequence (P20813 1-491): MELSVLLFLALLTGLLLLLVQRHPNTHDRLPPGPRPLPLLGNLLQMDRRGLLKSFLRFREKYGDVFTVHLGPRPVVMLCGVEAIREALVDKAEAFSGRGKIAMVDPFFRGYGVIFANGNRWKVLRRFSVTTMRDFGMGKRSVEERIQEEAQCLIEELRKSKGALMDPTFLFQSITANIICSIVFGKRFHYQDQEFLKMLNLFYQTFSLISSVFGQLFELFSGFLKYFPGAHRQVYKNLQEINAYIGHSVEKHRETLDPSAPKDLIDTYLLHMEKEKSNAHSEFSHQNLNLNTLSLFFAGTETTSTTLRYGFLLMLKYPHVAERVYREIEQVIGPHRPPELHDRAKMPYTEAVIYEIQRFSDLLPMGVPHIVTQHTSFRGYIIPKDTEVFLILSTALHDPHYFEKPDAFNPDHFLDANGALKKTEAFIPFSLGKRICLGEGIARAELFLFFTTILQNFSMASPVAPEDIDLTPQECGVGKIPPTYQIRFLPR
Kind of data set: Inhibition of recombinant CYP enzymes (rCYP), CYP2B6. The format is in vitro ADME. The following applies: average of two experiments, read-out: rCYP IC50 2B6.

Data set [2] concerns the target T2, CYP1A2 (Homo sapiens, UniProt P05177).
T2 sequence (P05177 1-516): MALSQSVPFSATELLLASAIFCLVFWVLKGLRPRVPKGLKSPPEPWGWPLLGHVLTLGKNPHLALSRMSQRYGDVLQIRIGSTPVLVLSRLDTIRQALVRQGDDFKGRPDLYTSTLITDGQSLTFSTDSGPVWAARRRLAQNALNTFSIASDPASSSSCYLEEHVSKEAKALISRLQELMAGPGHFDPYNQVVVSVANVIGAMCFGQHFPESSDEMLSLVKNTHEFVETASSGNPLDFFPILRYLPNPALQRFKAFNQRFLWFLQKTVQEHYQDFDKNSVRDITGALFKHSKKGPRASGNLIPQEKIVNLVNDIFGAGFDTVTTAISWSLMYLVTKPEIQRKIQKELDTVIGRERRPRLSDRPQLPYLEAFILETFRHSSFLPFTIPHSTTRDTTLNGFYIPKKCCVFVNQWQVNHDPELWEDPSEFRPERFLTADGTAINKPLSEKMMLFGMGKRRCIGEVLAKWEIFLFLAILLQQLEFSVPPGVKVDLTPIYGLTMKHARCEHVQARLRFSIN
Kind of data set: Inhibition of CYP enzymes in human liver microsomes (HLM), CYP1A2.

A short description of data set [3]: In vitro metabolite elucidation in Aroclor-treated rat liver S9 (with NADPH and GSH). The data set is classed as in vitro ADME. On the procedure: The incubation mixtures (0.5 mL) contained N2-(3-(DIFLUOROMETHOXY)-4-(3-METHYL-1H-1,2,4-TRIAZOL-1-YL)PHENYL)-7-(4-FLUOROPHENYL)-N4,5,5-[…]-6,7-DIHYDRO-5H-CYCLOPENTA[D]PYRIMIDINE-2,4-DIAMINE (10 μM), liver S9 fractions from Aroclor 1254-treated rats (Molecular Toxicology, Boone, N.C.) (2 mg protein/mL), and glutathione (GSH, 5 mM) in a 100 mM potassium phosphate buffer (pH 7.4). The final concentration of acetonitrile in the S9 fraction incubations was 0.5% (v/v). The reactions were initiated by adding β-nicotinamide adenine dinucleotide 2′-phosphate reduced tetrasodium salt (NADPH, final concentration as 1 mM) and the incubations were carried out at 37° C. […] The filtrate was collected in a 96-well plate and evaporated to approximately 25% of the original volume under nitrogen gas, and the remaining aqueous phase was analyzed using high-performance liquid chromatography with ultraviolet (UV) spectroscopic and mass spectrometric detection (LC-UV/MS) under the conditions described in Section 1.2.
Bioanalytical methods were as follows: The LC-UV/MS system consisted of a Waters Acquity binary solvent manager, a sample manager, a photodiode array (PDA) detector, and a Xevo Q-TOF mass spectrometer (Waters Corporation, Milford, Mass.). […] Column effluent was analyzed in-line using a PDA detector followed by the mass spectrometer. […]

Read-outs that look alike come from different tables or passages of the source.

On to `CNc1nc(Nc2ccc(-n3cnc(C)n3)c(OC(F)F)c2)nc2c1C(C)(C)CC2c1ccc(F)cc1` (single isomer, unassigned) [Enantiomer 1, N2-(3-(difluoromethoxy)-4-(3-methyl-1H-1,2,4-triazol-1-yl)phenyl)-7-(4-fluorophenyl)-N4,5,5-trimethyl-6,7-dihydro-5H-cyclopenta[d]pyrimidine-2,4-diamine], for which the IC50 in data set [1] is more than 20 µM; in data set [2] it was more than 40 µM; in data set [2] (read-out: IC50-30 min 1A2, HLM, 30 min preincubation with NADPH), more than 40 µM. Besides, in data set [2] (HLM, IC50 shift 0 vs 30 min preincubation (TDI ratio)), the “IC50 Ratio 1A2” value was 1.0. Besides, in data set [3] (10 μM, 30-minute incubation with NADPH and GSH, UV 300 nm), the “Estimated Percent (%) of The Original Parent Level (P) Based on UV Peak Areas” value is listed as 76%. Besides, in data set [3] (NADPH and GSH), the “GSH Adducts” value was “No GSH conjugates were detected”.

The values above are taken from patent publication US9833454B2, “Difluoromethoxy compound with low bioactivation potential for the reduction of beta-amyloid production” (BRISTOL-MYERS SQUIBB COMPANY, priority 2014, dated 2017).
